“Also recorded” adds a separate entry of the source. Read-outs that look alike come from different tables or passages of the source.
What was measured:
[1] = Study M04-710 pharmacokinetics, multiple-dose escalation, non-hematologic malignancies; assay type: in vivo, human; details: for AUC∞/D / Cmax/D / AUC0-24/D / Cmax / Tmax / AUC(0-t) / AUC(0-inf) / clearance / half-life: mean ± SD; for Cmax / Tmax / AUC(0-t) / AUC(0-inf) / clearance / half-life: human, plasma; for AUC(0-t): read-out: AUC0-24
Method: (§1) In study M04-710, blood samples for pharmacokinetic analysis were collected on Days 1 and 15 at the following times: 0 (pre-dose), 0.5, 1, 2, 3, 4, 6, 8, and 24 h (Day 1 only).
(§2) In study M05-756, blood samples for pharmacokinetic analysis were collected on Days 1 and 8 at the following times: 0 (pre-dose), 0.5, 1, 2, 3, 4, 6, 8, and 24 h (Day 1 only). Urine was collected for the 24 hour period following dosing on Day 13 through bedtime on Day 14 (non-hematologic malignancy study) and following dosing after Day 6 and through bedtime on Day 7 (AML/MDS study). Plasma and urine concentrations of ABT-869 were determined under the supervision of the Drug Analysis Department at Abbott using LCMS/MS. PK parameters were determined by noncompartmental analysis using WinNonlin Professional Version 5.0.1.

[2] = PK comparison across studies M04-710 and M05-756 (race, cancer type); assay type: in vivo, human; details: for Dose Normalized AUC24 / Dose Normalized Cmax: steady state; for half-life: human, plasma, oral
Method: The objective of this analysis was to compare pharmacokinetic (PK) parameters and to monitor safety and early efficacy of ABT-869 when treating solid tumors versus hematologic malignances, Asian versus Caucasian populations and using solution versus tablet formulations.
as §1, §2

[3] = system: non-hematologic malignancy; assay: Efficacy in study M04-710; assay type: in vivo, human
Method: Study M04-710 and M05-756 are ongoing, open-label, multiple-dose escalation trials with ABT-869 administered daily for 21 consecutive days, with dose escalation scheduled in cohorts of 3 subjects. […] In both studies dosing was initiated at 10 mg QD, with subjects self-administering ABT-869 orally (admixed with approximately 60 mL of Ensure Plus or an approved alternative) at bedtime. Food was not allowed 2 h before or after dosing.
ECOG score of 0-2 in study of non-hematologic malignancies or 0-3 in AML/MDS study.

[4] = human, in vivo
Method: Food was not allowed 2 h before or after dosing.
The following safety evaluations were performed during the studies: adverse event monitoring, vital signs, ECGs, physical examination and laboratory tests assessments.

[5] = Study Day 1, 10 mg (~0.20 mg/kg)
[6] = Study Day 15, 10 mg (~0.20 mg/kg)
[7] = oral, 0.1 mg/kg, Study Day 15, 0.10 mg/kg
[8] = oral, 0.1 mg/kg, Study Day 1, 0.10 mg/kg
[9] = oral, 0.25 mg/kg, Study Day 1, 0.25 mg/kg
[10] = oral, 0.25 mg/kg, Study Day 15, 0.25 mg/kg
[11] = oral, 0.3 mg/kg, Study Day 15, 0.30 mg/kg
[12] = oral, 0.3 mg/kg, Study Day 1, 0.30 mg/kg
[13] = oral, 10 mg, Study Day 1, 10 mg (~0.20 mg/kg)
[14] = oral, 10 mg, Study Day 15, 10 mg (~0.20 mg/kg)
[15] = oral, Study Day 1, 10 mg (~0.20 mg/kg)
[16] = Asian population, N 37, adjusted mean (% CV)
[17] = Caucasian population, N 12, adjusted mean (% CV)
[18] = Hematologic malignancies, N 17, adjusted mean (% CV)
[19] = Solid tumors, N 32, adjusted mean (% CV)

Which “dose proportionality and time dependence of PK” value ([1]; 0.10 to 0.30 mg/kg QD, oral) does the source give for `Cc1ccc(F)c(NC(=O)Nc2ccc(-c3cccc4[nH]nc(N)c34)cc2)c1` [ABT-869, N-[4-(3-amino-1H-indazol-4-yl)phenyl]-N′-(2-fluoro-5-methylphenyl)urea] here?
Its value is “dose-proportional and time-invariant; also recorded: approximately dose-proportional (0.10-0.30 mg/kg QD, oral) and time independent with minimal accumulation at day 15”.

And the “dose recovered in the urine as unchanged ABT-869” value ([1]; 24 hour urine, N=4)?
Its value is ~4%.

And the “AUC∞/D” value ([1]; Study Day 1, 0.10 mg/kg)?
The value was 0.51 ± 0.21 µg·h/mL/mg.

What about the Cmax/D ([1]; Study Day 1, 0.10 mg/kg) of the same molecule?
The Cmax/D was 0.020 ± 0.007 µg/mL/mg.

And the “AUC∞/D” value ([1]; Study Day 1, 0.25 mg/kg)?
The value was 0.41 ± 0.19 µg·h/mL/mg.

What about the Cmax/D ([1]; Study Day 1, 0.25 mg/kg) of the same molecule?
The Cmax/D was 0.019 ± 0.006 µg/mL/mg.

What about the “AUC∞/D” value ([1]; Study Day 1, 0.30 mg/kg) of the same molecule?
Its value is 0.47 ± 0.19 µg·h/mL/mg.

What about the Cmax/D ([1]; Study Day 1, 0.30 mg/kg) of the same molecule?
Its Cmax/D is 0.020 ± 0.008 µg/mL/mg.

And the “AUC∞/D” value [1, 5]?
Its value is 0.41 ± 0.22 µg·h/mL/mg.

And the Cmax/D [1, 5]?
The Cmax/D was 0.021 ± 0.012 µg/mL/mg.

And the AUC0-24/D ([1]; Study Day 15, 0.10 mg/kg)?
Its AUC0-24/D is 0.35 ± 0.15 µg·h/mL/mg.

What about the Cmax/D ([1]; Study Day 15, 0.10 mg/kg) of the same molecule?
Its Cmax/D is 0.024 ± 0.008 µg/mL/mg.

And the AUC0-24/D ([1]; Study Day 15, 0.25 mg/kg)?
Its AUC0-24/D is 0.30 ± 0.08 µg·h/mL/mg.

What about the Cmax/D ([1]; Study Day 15, 0.25 mg/kg) of the same molecule?
The Cmax/D was 0.022 ± 0.006 µg/mL/mg.

And the AUC0-24/D ([1]; Study Day 15, 0.30 mg/kg)?
Its AUC0-24/D is 0.30 ± 0.07 µg·h/mL/mg.

What about the Cmax/D ([1]; Study Day 15, 0.30 mg/kg) of the same molecule?
The Cmax/D was 0.022 ± 0.008 µg/mL/mg.

And the AUC0-24/D [1, 6]?
The AUC0-24/D was 0.35 ± 0.20 µg·h/mL/mg.

And the Cmax/D [1, 6]?
Its Cmax/D is 0.026 ± 0.019 µg/mL/mg.

What about the Cmax [1, 7] of the same molecule?
Its Cmax is 140 ± 50 ng/mL.

And the Tmax [1, 7]?
The Tmax was 3.7 ± 1.5 h.

And the AUC(0-t) [1, 7]?
The AUC(0-t) was 2100 ± 900 ng·h/mL.

And the AUC(0-inf) [1, 8]?
Its AUC(0-inf) is 3100 ± 1400 ng·h/mL.

And the Cmax [1, 8]?
The Cmax was 120 ± 50 ng/mL.

What about the Tmax [1, 8] of the same molecule?
Its Tmax is 3.5 ± 1.5 h.

And the clearance [1, 8]?
The clearance was 38.3 mL/min.

What about the half-life [1, 8] of the same molecule?
The half-life was 19 ± 5.6 h.

What about the Cmax [1, 9] of the same molecule?
The Cmax was 260 ± 90 ng/mL.

And the Tmax [1, 9]?
The Tmax was 2.7 ± 0.8 h.

And the Cmax [1, 10]?
The Cmax was 310 ± 120 ng/mL.

What about the Tmax [1, 10] of the same molecule?
Its Tmax is 3.5 ± 1 h.

And the Cmax [1, 11]?
Its Cmax is 390 ± 170 ng/mL.

What about the Tmax [1, 11] of the same molecule?
Its Tmax is 3.3 ± 0.6 h.

And the AUC(0-t) [1, 11]?
The AUC(0-t) was 5300 ± 1500 ng·h/mL.

What about the AUC(0-inf) [1, 12] of the same molecule?
Its AUC(0-inf) is 7900 ± 2000 ng·h/mL.

And the Cmax [1, 12]?
Its Cmax is 340 ± 90 ng/mL.

And the Tmax [1, 12]?
The Tmax was 2 h.

What about the clearance [1, 12] of the same molecule?
The clearance was 40 mL/min.

And the half-life [1, 12]?
Its half-life is 22 ± 2.4 h.

What about the Cmax [1, 13] of the same molecule?
Its Cmax is 210 ± 120 ng/mL.

And the Tmax [1, 13]?
The Tmax was 3.3 ± 1.5 h.

What about the Cmax [1, 14] of the same molecule?
Its Cmax is 220 ± 170 ng/mL.

And the Tmax [1, 14]?
The Tmax was 3 h.

And the AUC(0-inf) ([1]; oral, Study Day 1, 0.25 mg/kg)?
The AUC(0-inf) was 5800 ± 2900 ng·h/mL.

And the clearance ([1]; oral, Study Day 1, 0.25 mg/kg)?
Its clearance is 50 mL/min.

What about the half-life ([1]; oral, Study Day 1, 0.25 mg/kg) of the same molecule?
The half-life was 18.9 ± 6.2 h.

What about the AUC(0-inf) [1, 15] of the same molecule?
The AUC(0-inf) was 4100 ± 2200 ng·h/mL.

And the clearance [1, 15]?
Its clearance is 50 mL/min.

And the half-life [1, 15]?
Its half-life is 14.4 ± 4.6 h.

And the AUC(0-t) ([1]; oral, Study Day 15, 0.25 mg/kg)?
The AUC(0-t) was 4300 ± 2100 ng·h/mL.

And the AUC(0-t) ([1]; oral, Study Day 15, 10 mg (~0.20 mg/kg))?
The AUC(0-t) was 3000 ± 1500 ng·h/mL.

And the “time to maximum plasma concentration” value ([2]; 42 patients across studies)?
Its value is “approximately 3 h”.

What about the “Dose Normalized AUC24” value [2, 16] of the same molecule?
Its value is 0.264 (41%) μg · hr/mL/mg.

And the “Dose Normalized Cmax” value [2, 16]?
Its value is 0.018 (37%) μg/mL/mg.

What about the “Dose Normalized AUC24” value [2, 17] of the same molecule?
Its value is 0.229 (34%) μg · hr/mL/mg.

What about the “Dose Normalized Cmax” value [2, 17] of the same molecule?
The value was 0.016 (27%) μg/mL/mg.

What about the “Dose Normalized AUC24” value [2, 18] of the same molecule?
The value was 0.230 (39%) μg · hr/mL/mg.

What about the “Dose Normalized Cmax” value [2, 18] of the same molecule?
The value was 0.018 (33%) μg/mL/mg.

And the “Dose Normalized AUC24” value [2, 19]?
The value was 0.273 (40%) μg · hr/mL/mg.

What about the “Dose Normalized Cmax” value [2, 19] of the same molecule?
The value was 0.017 (39%) μg/mL/mg.

And the half-life ([2]; 42 patients across studies, read-out: mean terminal elimination half-life)?
The half-life was 13.9 to 23.1 h.

And the half-life ([2]; Asian population, N 37, adjusted mean (% CV), read-out: T1/2 (converted))?
The half-life was 18.4 h.

And the half-life ([2]; Caucasian population, N 12, adjusted mean (% CV), read-out: T1/2 (converted))?
The half-life was 14.5 h.

What about the half-life ([2]; Hematologic malignancies, N 17, adjusted mean (% CV), read-out: T1/2 (converted)) of the same molecule?
The half-life was 15.7 h.

And the half-life ([2]; Solid tumors, N 32, adjusted mean (% CV), read-out: T1/2 (converted))?
The half-life was 18.4 h.

What about the “change in tumor size” value ([3]; NSCLC, CRC, neuroendocrine tumor, HCC, RCC soft tissue sarcoma and ovarian carcinoma) of the same molecule?
The value was “Reductions in tumor size observed”.

And the “NSCLC patients with partial remission / partial response” value ([3]; study M04-710)?
Its value is 2 (9%) patients (%).

And the “patients with SD for >1 year with no accumulation of toxicity” value ([3]; study M04-710)?
The value was 4 patients.

What about the “patients with SD for ≧6 months” value ([3]; study M04-710) of the same molecule?
The value was 6 (22%) patients (%).

And the “patients with stable disease (SD) for ≧3 months (4 treatment periods)” value ([3]; study M04-710)?
The value was 15 (56%) patients (%).

What about the “Klebsiella Bacteraemia, Grade 1” value [4] of the same molecule?
The value was 0 n.

And the “Klebsiella Bacteraemia, Grade 2” value [4]?
The value was 0 n.

And the “Klebsiella Bacteraemia, Grade 3/4” value [4]?
The value was 2 n.

And the “Klebsiella Bacteraemia, Overall” value [4]?
The value was 2 (20.0) n (%).

— patent US20090203709A1, “Pharmaceutical Dosage Form For Oral Administration Of Tyrosine Kinase Inhibitor” (ABBOTT LABORATORIES, priority 2008, published 2009)
